Measurements as given in patent US20030187007A1, “Inhibitors of protein kinase for the treatment of disease” (priority 2001, published 2003).
pIC50: −log10 of the molar value. One block for each molecule: values may come before it.

Tests used:
Assay type in all cases: biochemical
[1] = target: CDK2 complexed with cyclin A (Homo sapiens, UniProt P24941); test: Cyclin dependent kinase activity assay, phosphorylation of synthetic peptide PKTPKKAKKLRRR; details: 0.1 mM ATP, read-out: CDK 2 Activity*
Protocol: (§1) The assay of cyclin dependent kinase activity was determined by monitoring the phosphorylation of a synthetic peptide, PKTPKKAKKLRRR. The assay mixture contained 0.1 mM cold ATP, ^33P-γ-ATP (2000-4000 cpm/μL), 0.1 mM peptide, 1 mM DTT, and 10 mM MgCl2 in 100 mM HEPES buffer pH 7.4. The assay mixture, along with inhibitor and CDK enzyme (0.3-0.4 U/mL; either CDK5 complexed with p25, CDK2 complexed with complexed with cyclin A), was mixed together in a microtiter plate in a final volume of 40 μL, sealed and incubated for 2 hours at 30° C. Following incubation, a 15 μL aliquot was added to a Whatman P81 filtration plate containing 100 μL 0.5% phosphoric acid. This mixture was allowed to stand for 5 minutes prior to filtration on a vacuum manifold. The filter plate was washed with 5 successive additions of 300 μL 0.5% phosphoric acid. The filtration plate was air dried for 10 minutes before sealing the bottom. After addition of scintillation fluid to the sealed plate, phosphorylated peptide was quantified in a scintillation counter.

CDK5 complexed with p25 = CDK5 complexed with p25 (Homo sapiens, UniProt Q00535); test: as above; details: CDK5 complexed with p25, 0.1 mM ATP; read-out: CDK 5 Activity*
Sequence of CDK5 complexed with p25 (Q00535 whole entry): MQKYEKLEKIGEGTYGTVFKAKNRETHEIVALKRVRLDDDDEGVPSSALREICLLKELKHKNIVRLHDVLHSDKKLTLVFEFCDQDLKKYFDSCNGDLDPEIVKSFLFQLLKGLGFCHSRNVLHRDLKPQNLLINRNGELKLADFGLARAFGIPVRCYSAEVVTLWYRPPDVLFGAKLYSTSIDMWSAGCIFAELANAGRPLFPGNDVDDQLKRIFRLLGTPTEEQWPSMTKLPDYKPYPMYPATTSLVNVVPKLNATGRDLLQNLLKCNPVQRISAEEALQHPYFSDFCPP
Sequence of CDK5 complexed with p25 (Q15078 99-307 partner limits assumed): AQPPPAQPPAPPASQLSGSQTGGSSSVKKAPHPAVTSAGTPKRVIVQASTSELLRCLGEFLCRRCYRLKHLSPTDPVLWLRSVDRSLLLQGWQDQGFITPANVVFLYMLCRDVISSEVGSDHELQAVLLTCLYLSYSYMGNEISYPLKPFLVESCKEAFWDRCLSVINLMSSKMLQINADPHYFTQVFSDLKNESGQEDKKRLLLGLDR
Protocol: as §1

KDR = KDR (Homo sapiens, UniProt P35968); test: Enzyme assay for  (KDR), IC50 determination; details: 50 nM KDR, 500 μM ATP
Sequence of KDR (P35968 20-1356): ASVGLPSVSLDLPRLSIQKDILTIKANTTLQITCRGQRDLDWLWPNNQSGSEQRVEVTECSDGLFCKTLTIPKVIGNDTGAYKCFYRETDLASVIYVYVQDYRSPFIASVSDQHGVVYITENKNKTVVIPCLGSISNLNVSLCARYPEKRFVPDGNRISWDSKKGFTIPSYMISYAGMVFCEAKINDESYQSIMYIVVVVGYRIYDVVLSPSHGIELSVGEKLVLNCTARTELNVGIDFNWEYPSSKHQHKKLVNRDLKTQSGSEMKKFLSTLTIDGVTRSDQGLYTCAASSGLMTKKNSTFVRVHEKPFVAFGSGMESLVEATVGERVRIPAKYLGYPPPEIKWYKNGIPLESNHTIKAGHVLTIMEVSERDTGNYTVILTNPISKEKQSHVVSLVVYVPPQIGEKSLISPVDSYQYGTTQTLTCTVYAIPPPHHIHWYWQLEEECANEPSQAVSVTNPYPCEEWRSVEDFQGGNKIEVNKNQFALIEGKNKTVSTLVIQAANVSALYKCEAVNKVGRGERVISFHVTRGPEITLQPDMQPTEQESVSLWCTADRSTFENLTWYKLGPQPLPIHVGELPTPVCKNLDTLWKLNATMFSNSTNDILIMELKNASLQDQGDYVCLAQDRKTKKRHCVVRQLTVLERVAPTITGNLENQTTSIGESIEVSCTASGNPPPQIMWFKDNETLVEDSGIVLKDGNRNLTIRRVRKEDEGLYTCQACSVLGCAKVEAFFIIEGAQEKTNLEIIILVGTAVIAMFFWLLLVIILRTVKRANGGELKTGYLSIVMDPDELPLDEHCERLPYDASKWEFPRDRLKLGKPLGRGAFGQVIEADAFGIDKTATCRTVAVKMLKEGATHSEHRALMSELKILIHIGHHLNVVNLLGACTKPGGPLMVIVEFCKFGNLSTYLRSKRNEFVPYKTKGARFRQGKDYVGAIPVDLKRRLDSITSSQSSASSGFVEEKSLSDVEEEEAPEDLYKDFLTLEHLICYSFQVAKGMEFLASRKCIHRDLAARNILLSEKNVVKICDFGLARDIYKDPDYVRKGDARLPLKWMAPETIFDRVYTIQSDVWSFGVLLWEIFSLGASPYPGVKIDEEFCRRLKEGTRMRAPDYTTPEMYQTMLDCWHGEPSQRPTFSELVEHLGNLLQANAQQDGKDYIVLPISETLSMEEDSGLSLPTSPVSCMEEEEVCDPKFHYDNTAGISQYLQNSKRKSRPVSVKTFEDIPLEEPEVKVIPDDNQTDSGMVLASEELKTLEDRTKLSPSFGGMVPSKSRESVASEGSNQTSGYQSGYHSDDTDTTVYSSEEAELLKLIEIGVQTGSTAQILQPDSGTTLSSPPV
Protocol: Enzyme assays for IC50 determinations were performed in 96-well titer plates, in a total reaction volume of 50 μL. Each reaction contained 1.5 μL of appropriate dilutions of inhibitor, 50 mM Hepes, pH 7.4, 1 mM DTT, 10 mM magnesium chloride, 2 mM phospho-poly(E4Y) (Sigma Chemical Company), 500 μM unlabeled ATP, 0.0025 μM [^33P]ATP (Amersham Pharmacia Biotech), and 50 nM KDR. All components except KDR were added to the wells, and the reaction was started by the addition of the enzyme. The reactions were mixed and incubated at room temperature for 1 hr, after which the reactions were quenched by the addition of 50 μL of 8% phosphoric acid. At this point, 90 μL aliquots of the samples were applied to positively charged DEAE 96-well filter plates (Millipore Corporation MADENOB10). The plates were incubated for 30 min at room temperature. The samples were aspirated and the wells were washed 3 times with 200 μL of 0.5% phosphoric acid. To each well, 50 μL of scintillation cocktail was added and counted for 60 sec in a TopCount microplate scintillation counter (Packard Instrument Company). The concentration of a compound that inhibited the activity of KDR by 50% (IC50) was determined based its inhibition curve.

Compound: Nc1nccc(-c2cc(-c3ccc(O)c(F)c3)ccc2O)n1 [Example 53, 3-(2-Amino-pyrimidin-4-yl)-3′-fluoro-biphenyl-4,4′-diol]
pIC50 [1]: > 6.30
pIC50 (CDK5 complexed with p25): > 6.30

Compound: Nc1nccc(-c2cc(-c3ccncc3)ccc2O)n1 [Example 62, 2-(2-Amino-pyrimidin-4-yl)-4-pyridin-4-yl-phenol]
pIC50 [1]: > 6.30
pIC50 (CDK5 complexed with p25): > 6.30

Compound: Nc1nccc(-c2cc(-c3cccnc3)ccc2O)n1 [Example 63, 2-(2-Amino-pyrimidin-4-yl)-4-pyridin-3-yl-phenol]
pIC50 [1]: < 5.30
pIC50 (CDK5 complexed with p25): > 6.30

Compound: Nc1cccc(-c2ccc(O)c(-c3ccnc(N)n3)c2)n1 [Example 64, 4-(6-Amino-pyridin-2-yl)-2-(2-amino-pyrimidin-4-yl)-phenol]
pIC50 [1]: > 6.30
pIC50 (CDK5 complexed with p25): > 6.30

Compound: Nc1ccc(-c2ccc(O)c(-c3ccnc(N)n3)c2)cn1 [Example 65, 4-(6-Amino-pyridin-3-yl)-2-(2-amino-pyrimidin-4-yl)-phenol]
pIC50 [1]: > 6.30
pIC50 (CDK5 complexed with p25): 5.70 to 6.30

Compound: Nc1ncc(-c2ccc(O)c(-c3ccnc(N)n3)c2)cn1 [Example 66, 2-(2-Amino-pyrimidin-4-yl)-4-(2-amino-pyrimidin-5-yl)-phenol]
pIC50 [1]: 5.70 to 6.30
pIC50 (CDK5 complexed with p25): 5.70 to 6.30

Compound: Nc1nccc(-c2ccc(O)c(-c3ccnc(N)n3)c2)n1 [Example 68, 2,4-Bis-(2-amino-pyrimidin-4-yl)-phenol]
pIC50 [1]: > 6.30
pIC50 (CDK5 complexed with p25): > 6.30

Compound: Nc1nccc(-c2cc(-c3ccc[nH]3)ccc2O)n1 [Example 69, 2-(2-Amino-pyrimidin-4-yl)-4-(1H-pyrrol-2-yl)-phenol]
pIC50 [1]: > 6.30
pIC50 (CDK5 complexed with p25): > 6.30

Compound: Nc1nccc(-c2cc(-c3c[nH]c(=O)[nH]c3=O)ccc2O)n1 [Example 70, 5-[3-(2-Amino-pyrimidin-4-yl)-4-hydroxy-phenyl]-1 H-pyrimidine-2.4-dione]
pIC50 [1]: < 5.30
pIC50 (CDK5 complexed with p25): 5.30 to 5.70

Compound: Nc1cccc(-c2cc(-c3ccnc(N)n3)ccc2O)n1 [Example 71, 2-(2-Aminopyridin-6-yl)-4-(2-aminopyrimidin-4-yl)-phenol]
pIC50 [1]: > 6.30
pIC50 (CDK5 complexed with p25): > 6.30

Compound: Nc1nc(-c2cc(-c3ccc(O)cc3)ccc2O)cc(N2CCNCC2)n1 [Example 78, 3-(2-Amino-6-piperazin-1-yl-pyrimidin-4-yl)-biphenyl-4,4′-diol]
pIC50 [1]: < 5.30
pIC50 (CDK5 complexed with p25): > 6.30

Compound: Nc1nc(N[C@@H](CO)c2ccccc2)cc(-c2cc(-c3ccc4[nH]ccc4c3)ccc2O)n1 [Example 93, 2-[2-Amino-6-(2-hydroxy-1 R-phenyl-ethylamino)-pyrimidin-4-yl]-4-(1H-indol-5-yl)-phenol]
pIC50 (KDR): > 6.00

Compound: Nc1cccc(-c2ccc(O)c(-c3ccnc(N)n3)c2)c1 [Example 94, 3′-Amino-3-(2-amino-pyrimidin-4-yl)-biphenyl-4-ol]
pIC50 (KDR): 4.70 to 6.00

Compound: CC(C)(C)OC(=O)n1cccc1-c1ccc(O)c(-c2ccnc(N)n2)c1 [Example 95, 2-[3-(2-Amino-pyrimidin-4-yl)-4-hydroxy-phenyl]-pyrrole-1-carboxylic acid t-butyl ester]
pIC50 (KDR): 4.70 to 6.00

Compound: Nc1nc(N[C@@H](CO)Cc2c[nH]c3ccccc23)cc(-c2cc(-c3ccc(O)cc3)ccc2O)n1 [Example 96, 3-{2-Amino-6-[2-hydroxy-1R-(1H-indol-3-ylmethyl)-ethylamino]-pyrimidin-4-yl}-biphenyl-4,4′-diol]
pIC50 (KDR): 4.70 to 6.00

Compound: Nc1nc(-c2cc(-c3ccc(O)cc3)ccc2O)cc(N2CCN(Cc3ccccc3)CC2)n1 [Example 101, 3-[2-Amino-6-(4-benzyl-piperazin-1-yl)-pyrimidin-4-yl]-biphenyl-4,4′-diol]
pIC50 (KDR): 4.70 to 6.00

Compound: CN1CCN(c2cc(-c3cc(-c4ccc(O)cc4)ccc3O)nc(N)n2)CC1 [Example 104, 3-[2-Amino-6-(4-methyl-piperazin-1-yl)-pyrimidin-4-yl]-biphenyl-4.4′-diol]
pIC50 (KDR): 4.70 to 6.00

Compound: Nc1nc(-c2cc(-c3ccc(O)cc3)ccc2O)cc(N2CCSCC2)n1 [Example 107, 3-(2-Amino-6-thiomorpholin-4-yl-pyrimidin-4-yl)-biphenyl-4,4′-diol]
pIC50 (KDR): 4.70 to 6.00

Compound: Nc1nc(NCc2ccccc2-c2ccccc2)cc(-c2cc(-c3ccc(O)cc3)ccc2O)n1 [Example 108, 3-{2-Amino-6-[(biphenyl-2-ylmethyl)-amino]-pyrimidin-4-yl}-biphenyl-4,4′-diol]
pIC50 (KDR): > 6.00

Continued, values first:

pIC50 [1]: > 6.30
pIC50 (CDK5 complexed with p25): > 6.30
Compound: Nc1nc(Cl)cc(-c2cc(-c3ccc(O)cc3)ccc2O)n1 [Example 54, 3-(2-Amino-6-chloro-pyrimidin-4-yl)-biphenyl-4,4′-diol]

pIC50 [1]: > 6.30
pIC50 (CDK5 complexed with p25): > 6.30
Compound: Nc1nc(NCCO)cc(-c2cc(-c3ccc(O)cc3)ccc2O)n1 [Example 55, 3-[2-Amino-6-(2-hydroxy-ethylamino)-pyrimidin-4-yl]-biphenyl-4,4′-diol]

pIC50 [1]: > 6.30
pIC50 (CDK5 complexed with p25): > 6.30
Compound: Nc1nc(NCC(O)CO)cc(-c2cc(-c3ccc(O)cc3)ccc2O)n1 (stereo not shown) [Example 56, 3-[2-Amino-6-(2,3-dihydroxy-propylamino)-pyrmidin-4-yl]-biphenyl-4,4′-diol]

pIC50 [1]: > 6.30
pIC50 (CDK5 complexed with p25): > 6.30
Compound: Nc1nc(NCCCCCO)cc(-c2cc(-c3ccc(O)cc3)ccc2O)n1 [Example 77, 3-[2-Amino-6-(5-hydroxy-pentylamino)-pyrimidin-4-yl]-biphenyl-4,4′-diol]

pIC50 [1]: > 6.30
pIC50 (CDK5 complexed with p25): > 6.30
Compound: Nc1nc(-c2cc(-c3ccc(O)cc3)ccc2O)cc(N2CCCC(CO)C2)n1 (stereo not shown) [Example 82, 3-[2-Amino-6-(3-hydroxymethyl-piperidin-1-yl)-pyrimidin-4-yl]-biphenyl-4,4′-diol]

pIC50 (KDR): > 6.00
Compound: Nc1nc(N[C@H](CO)c2ccccc2)cc(-c2cc(-c3ccc(O)cc3)ccc2O)n1 [Example 97, 3-[2-Amino-6-(2-hydroxy-1S-phenyl-ethylamino)-pyrimidin-4-yl]-biphenyl-4,4′-diol]

pIC50 (KDR): > 6.00
Compound: COc1ccc(Nc2cc(-c3cc(-c4ccc(O)cc4)ccc3O)nc(N)n2)cc1 [Example 98, 3-[2-Amino-6-(4-methoxy-phenylamino)-pyrimidin-4-yl]-biphenyl-4,4′-diol]

pIC50 (KDR): > 6.00
Compound: Nc1nc(N[C@H](CO)CSCc2ccccc2)cc(-c2cc(-c3ccc(O)cc3)ccc2O)n1 [Example 99, 3-[2-Amino-6-(2-benzylsulfanyl-1R-hydroxymethyl-ethylamino)-pyrimidin-4-yl]-biphenyl-4,4′-diol]

pIC50 (KDR): > 6.00
Compound: Nc1nc(NCCc2c[nH]c3ccccc23)cc(-c2cc(-c3ccc(O)cc3)ccc2O)n1 [Example 100, 3-{2-Amino-6-[2-(1-indol-3-yl)-ethylamino]-pyrimidin-4-yl} biphenyl-4,4′-diol]

pIC50 (KDR): 4.70 to 6.00
Compound: Nc1nc(N[C@@H](CO)Cc2c[nH]c3ccccc23)cc(-c2cc(-c3ccc(O)cc3)ccc2O)n1 [Example 102, 3-{2-Amino-6-[2-hydroxy-1R-(1 H-indol-3-ylmethyl)-ethylamino]-pyrimidin-4-yl}-biphenyl-4,4′-diol]

pIC50 (KDR): 4.70 to 6.00
Compound: CC(C)[C@@H](CO)Nc1cc(-c2cc(-c3ccc(O)cc3)ccc2O)nc(N)n1 [Example 103, 3-[2-Amino-6-(I -hydroxymethyl-2-methyl-propylamino)pyrimidin-4-yl]-biphenyl-4.4′-diol]

pIC50 (KDR): 4.70 to 6.00
Compound: Nc1nc(NCCN2CCOCC2)cc(-c2cc(-c3ccc(O)cc3)ccc2O)n1 [Example 105, 3-[2-Amino-6-(2-morpholin-4-yl-ethylamino)-pyrimidin-4-yl]-biphenyl-4,4′-diol]

pIC50 (KDR): > 6.00
Compound: Nc1nc(NCCc2ccccn2)cc(-c2cc(-c3ccc(O)cc3)ccc2O)n1 [Example 106, 3-[2-Amino-6-(2-pyridin-2-yl-ethylamino)-pyrimidin-4-yl]-biphenyl-4,4′-diol]

pIC50 (KDR): > 6.00
Compound: Nc1nc(Nc2cccc(Cl)c2)cc(-c2cc(-c3ccc(O)cc3)ccc2O)n1 [Example 109, 3-[2-Amino-6-(3-chloro-phenylamino)-pyrimidin-4-yl]-biphenyl-4,4′-diol]

pIC50 (KDR): > 6.00
Compound: Nc1nc(Nc2ccc(Cl)cc2)cc(-c2cc(-c3ccc(O)cc3)ccc2O)n1 [Example 110, 3-[2-Amino-6-(4-chloro-phenylamino)-pyrimidin-4-yl]-biphenyl-4,4′-diol]

pIC50 (KDR): > 6.00
Compound: COc1cccc(Nc2cc(-c3cc(-c4ccc(O)cc4)ccc3O)nc(N)n2)c1 [Example 111, 3-[2-Amino-6-(3-methoxy-phenylamino)-pyrimidin-4-yl]-biphenyl-4,4′-diol]

pIC50 (KDR): > 6.00
Compound: Nc1nc(N[C@@H](CO)c2ccccc2)cc(-c2cc(-c3ccc(O)cc3)ccc2O)n1 [Example 112, 3-[2-Amino-6-(2-hydroxy-1-phenyl-ethylamino)-pyrimidin-4-yl]-biphenyl-4,4′-diol]
